Results taken from paper PMC8617031, “Development of a BCL-xL and BCL-2 dual degrader with improved anti-leukemic activity,” (Nature Communications, 2021).
“And” between values parts separate entries of the source, which are not always exact repeats. Equal values may be shown once. Read-outs that look alike come from different tables or passages of the source.

How the values were obtained:
[1] = target: T1, His-tagged BCL-xL (Homo sapiens, UniProt Q07817); assay: AlphaScreen competitive binary binding, BCL-xL (biotin-BAD peptide)
T1 construct: purchased Sigma-Aldrich SRP0187
Protocol: The reagents were diluted in a buffer containing 250 mM HEPES pH 7.5, 1 M NaCl, 1% BSA, and 0.05% Tween-80. His-tagged BCL-xL (0.5 nM, Cat. No. SRP0187, Sigma-Aldrich) or BCL-2 (1 nM, Cat. No. SRP0186, Sigma-Aldrich) were incubated with serial diluted 753a or 753b and 2 nM biotin-tagged BAD (biotin-[…] amino-terminal, AnaSpec, for BCL-xL) or 10 nM BIM peptides (biotin-[…] N-terminal, AnaSpec, for BCL-2) to a final volume of 40 µl in a 96-well PCR plate. […] After incubation for 2 h, 5 µl 6× His-acceptor beads (Cat. No. AL128M, PerkinElmer) were added to each well at 20 µg/ml final concentration and incubated for 1 h. Then 5 µl streptavidin-donor beads were added (Cat. No. 6760002, PerkinElmer) to each well at 20 µg/ml final concentration and incubated for 45 min. At the end of the incubation period, 17 µl of each sample was transferred in adjacent wells of 384-well proxy plate (Cat. No. 6008280, PerkinElmer). The plate was scanned using the Alpha program on Biotek’s Synergy Neo2 multimode plate reader. The inhibition constant (Ki) was calculated using the non-linear regression, one site, competitive binding, Fit Ki function on GraphPad Prism 9 software, based on experimentally determined dissociation constant (Kd) for each protein–peptide pair.

[2] = Viability (MTS) of 293T cells; assay type: cell-based, human; conditions: human
In short: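 Adherent cells treated after overnight attachment, nine concentrations in triplicate. After 72 h, MTS/PMS added and incubated 4 h at 37 °C before absorbance at 490 nm. Background-subtracted viability expressed as percent of untreated controls and fitted by non-linear regression.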

T1 sequence (Q07817 whole entry): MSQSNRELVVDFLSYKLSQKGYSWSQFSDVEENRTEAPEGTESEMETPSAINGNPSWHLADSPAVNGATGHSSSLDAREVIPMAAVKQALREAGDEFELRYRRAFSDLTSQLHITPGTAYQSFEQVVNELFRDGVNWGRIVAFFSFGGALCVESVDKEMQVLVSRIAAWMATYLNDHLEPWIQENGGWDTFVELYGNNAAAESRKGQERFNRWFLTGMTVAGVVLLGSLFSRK

Cc1ncsc1-c1ccc([C@H](C)NC(=O)[C@@H]2C[C@@H](O)CN2C(=O)[C@@H](NC(=O)CCCCCC(=O)N2CCN(CC[C@H](CSc3ccccc3)Nc3ccc(S(=O)(=O)NC(=O)c4ccc(N5CCN(CC6=C(c7ccc(Cl)cc7)CCC(C)(C)C6)CC5)cc4)cc3S(=O)(=O)C(F)(F)F)CC2)C(C)(C)C)cc1 [DT2216]
IC50 ([1]; BCL-xL Rep-1): 120 nM
Ki ([1]; BCL-xL Rep-1): 5.4 nM
Alpha signal normalised to Maximum/Minimum (inhibition) ([1]; BCL-xL Rep-1, 0.000305176 uM, 0.000305176 µM): 20.1617
inhibition at 0.000305176 µM ([1]; BCL-xL Rep-1, 0.000305176 uM, read-out: Alpha signal normalised to Maximum/Minimum (inhibition)): 18.1%
Alpha signal normalised to Maximum/Minimum (inhibition) ([1]; BCL-xL Rep-1, 0.0012207 uM, 0.0012207 µM): 17.8409
inhibition at 0.0012207 µM ([1]; BCL-xL Rep-1, 0.0012207 uM, read-out: Alpha signal normalised to Maximum/Minimum (inhibition)): 21.3%
Alpha signal normalised to Maximum/Minimum (inhibition) ([1]; BCL-xL Rep-1, 0.00488281 uM, 0.00488281 µM): 23.949
inhibition at 0.00488281 µM ([1]; BCL-xL Rep-1, 0.00488281 uM, read-out: Alpha signal normalised to Maximum/Minimum (inhibition)): 23.9%
Alpha signal normalised to Maximum/Minimum (inhibition) ([1]; BCL-xL Rep-1, 0.0195312 uM, 0.0195312 µM): 38.2381
inhibition at 0.0195312 µM ([1]; BCL-xL Rep-1, 0.0195312 uM, read-out: Alpha signal normalised to Maximum/Minimum (inhibition)): 39%
Alpha signal normalised to Maximum/Minimum (inhibition) ([1]; BCL-xL Rep-1, 0.078125 uM, 0.078125 µM): 43.5761
inhibition at 0.078125 µM ([1]; BCL-xL Rep-1, 0.078125 uM, read-out: Alpha signal normalised to Maximum/Minimum (inhibition)): 42.3%
Alpha signal normalised to Maximum/Minimum (inhibition) ([1]; BCL-xL Rep-1, 0.3125 uM, 0.3125 µM): 88.5079
inhibition at 0.3125 µM ([1]; BCL-xL Rep-1, 0.3125 uM, read-out: Alpha signal normalised to Maximum/Minimum (inhibition)): 85.7%
Alpha signal normalised to Maximum/Minimum (inhibition) ([1]; BCL-xL Rep-1, 1.25 uM, 1.25 µM): 97.7177
inhibition at 1.25 µM ([1]; BCL-xL Rep-1, 1.25 uM, read-out: Alpha signal normalised to Maximum/Minimum (inhibition)): 96.9%
Alpha signal normalised to Maximum/Minimum (inhibition) ([1]; BCL-xL Rep-1, 5 uM, 5 µM): 99.5511
inhibition at 5 µM ([1]; BCL-xL Rep-1, 5 uM, read-out: Alpha signal normalised to Maximum/Minimum (inhibition)): 99.5%
Alpha signal (raw counts) ([1]; BCL-xL Rep-1, plate row B, 5 uM): 27230 and 26015
Alpha signal (raw counts) ([1]; BCL-xL Rep-1, plate row C, 1.25 uM): 64394 and 52279
Alpha signal (raw counts) ([1]; BCL-xL Rep-1, plate row D, 0.3125 uM): 224421 and 184214
Alpha signal (raw counts) ([1]; BCL-xL Rep-1, plate row E, 0.078125 uM): 846185 and 827887
Alpha signal (raw counts) ([1]; BCL-xL Rep-1, plate row F, 0.0195312 uM): 894074 and 904357
Alpha signal (raw counts) ([1]; BCL-xL Rep-1, plate row G, 0.00488281 uM): 1110366 and 1109056
Alpha signal (raw counts) ([1]; BCL-xL Rep-1, plate row H, 0.0012207 uM): 1147150 and 1196559
Alpha signal (raw counts) ([1]; BCL-xL Rep-1, plate row I, 0.000305176 uM): 1192890 and 1163311
Alpha signal (raw counts) ([1]; BCL-xL Rep-1, plate row J, 7.62939e-5 uM): 1153277 and 1055277
Alpha signal (raw counts) ([1]; BCL-xL Rep-1, plate row K, 1.90735e-5 uM): 1140776 and 1328684
Alpha signal (raw counts) ([1]; BCL-xL Rep-2, 7.62939e-5 uM): 1377571 and 1338961
Alpha signal normalised to Maximum/Minimum (inhibition) ([1]; BCL-xL Rep-2, 0.0012207 uM, 0.0012207 µM): 12.2985
inhibition at 0.0012207 µM ([1]; BCL-xL Rep-2, 0.0012207 uM, read-out: Alpha signal normalised to Maximum/Minimum (inhibition)): 16.2%
Alpha signal normalised to Maximum/Minimum (inhibition) ([1]; BCL-xL Rep-2, 0.00488281 uM, 0.00488281 µM): 25.1578
inhibition at 0.00488281 µM ([1]; BCL-xL Rep-2, 0.00488281 uM, read-out: Alpha signal normalised to Maximum/Minimum (inhibition)): 22.8%
Alpha signal normalised to Maximum/Minimum (inhibition) ([1]; BCL-xL Rep-2, 0.0195312 uM, 0.0195312 µM): 25.456
inhibition at 0.0195312 µM ([1]; BCL-xL Rep-2, 0.0195312 uM, read-out: Alpha signal normalised to Maximum/Minimum (inhibition)): 35.3%
Alpha signal normalised to Maximum/Minimum (inhibition) ([1]; BCL-xL Rep-2, 0.078125 uM, 0.078125 µM): 57.5037
inhibition at 0.078125 µM ([1]; BCL-xL Rep-2, 0.078125 uM, read-out: Alpha signal normalised to Maximum/Minimum (inhibition)): 60.5%
Alpha signal normalised to Maximum/Minimum (inhibition) ([1]; BCL-xL Rep-2, 0.3125 uM, 0.3125 µM): 86.3518
inhibition at 0.3125 µM ([1]; BCL-xL Rep-2, 0.3125 uM, read-out: Alpha signal normalised to Maximum/Minimum (inhibition)): 86.5%
Alpha signal normalised to Maximum/Minimum (inhibition) ([1]; BCL-xL Rep-2, 1.25 uM, 1.25 µM): 97.814
inhibition at 1.25 µM ([1]; BCL-xL Rep-2, 1.25 uM, read-out: Alpha signal normalised to Maximum/Minimum (inhibition)): 98.7%
Alpha signal normalised to Maximum/Minimum (inhibition) ([1]; BCL-xL Rep-2, 5 uM, 5 µM): 100.647
inhibition at 5 µM ([1]; BCL-xL Rep-2, 5 uM, read-out: Alpha signal normalised to Maximum/Minimum (inhibition)): 100%
Alpha signal (raw counts) ([1]; BCL-xL Rep-2, plate row B, 5 uM): 20174 and 14292
Alpha signal (raw counts) ([1]; BCL-xL Rep-2, plate row C, 1.25 uM): 40445 and 53326
Alpha signal (raw counts) ([1]; BCL-xL Rep-2, plate row D, 0.3125 uM): 209031 and 211248
Alpha signal (raw counts) ([1]; BCL-xL Rep-2, plate row E, 0.078125 uM): 567789 and 608705
Alpha signal (raw counts) ([1]; BCL-xL Rep-2, plate row F, 0.0195312 uM): 914961 and 1050246
Alpha signal (raw counts) ([1]; BCL-xL Rep-2, plate row G, 0.00488281 uM): 1086158 and 1054354
Alpha signal (raw counts) ([1]; BCL-xL Rep-2, plate row H, 0.0012207 uM): 1178429 and 1231525
Alpha signal (raw counts) ([1]; BCL-xL Rep-2, plate row I, 0.000305176 uM): 1409371 and 1266044
Alpha signal (raw counts) ([1]; BCL-xL Rep-2, plate row K, 1.90735e-5 uM): 1319490 and 1464517
Ki ([1]; BCL-xL, mean of the two replicate values (line without label)): 3.96 nM
Ki ([1]; BCL-xL, second value (line without label below Rep-1, apparently Rep-2)): 2.53 nM
viability at 72 h, 0.00137174 µM [2]: 106%
viability at 72 h, 0.00411523 µM [2]: 104%
viability at 72 h, 0.037037 µM [2]: 106%
viability at 72 h, 0.111111 µM [2]: 110%
viability at 72 h, 3 µM [2]: 90.6%
viability at 72 h, 0.037037 µM ([2]; 293T cell viability, MTS absorbance 490 as percent of untreated control, single replicate well, 0.037037 uM, replicate well, normalised to own plate): 105%
viability at 72 h, 0.111111 µM ([2]; 293T cell viability, MTS absorbance 490 as percent of untreated control, single replicate well, 0.111111 uM, replicate well, normalised to own plate): 109%
viability at 72 h, 3 µM ([2]; 293T cell viability, MTS absorbance 490 as percent of untreated control, single replicate well, 3 uM, replicate well, normalised to own plate): 89.4%
